The record followed here is patent publication US20140377216A1, “ANTICANCER FUSION PROTEIN” (ADAMED SP. Z.O.O., priority 2011, published 2014).

Format in all cases: in vivo, Crl:SHO-PrkdcscidHrhr mice
In assay [1] the test system is human lung cancer NCI-H460-Luc2. The assay can be described thus: Lung cancer model, Experiment C: NCI-H460-Luc2 xenograft. The conditions noted are these: 20 mg/kg i.v. 6 times every second day, 29 day. On the procedure: (§1) Tumor size was measured using electronic calliper, tumor volume was calculated using the formula: (a^2×b)/2, where a=shorter diagonal of the tumor (mm) and b=longer diagonal of the tumor (mm). Inhibition of tumor growth was calculated using the formula:
(§2) TGI[%](Tumor growth inhibition)=(WT/WC)×100−100%
(§3) wherein WT is the average tumor volume in the treatment group, and WC is the average tumor volume in the control group.
On day 0 Crl:SHO-Prkdc^scidHr^hr mice were grafted subcutaneously (s.c.) in the right side with 5×10^6 of NCI-H460-Luc2 cells suspended in 0.1 ml of HBSS buffer using syringe with a needle 0.5×25 mm (Bogmark). On the 11 day of the experiment mice were randomized to obtain the average size of tumors in the group of ˜100-120 mm^3 and assigned to treatment groups. The treatment groups were administered with the preparations of fusion protein of the invention of Ex. 11^a (40 mg/kg and 30 mg/kg), and rhTRAIL114-281 (20 mg/kg) as a comparison against formulation buffer (19 mM NaH2PO4, 81 mM Na2HPO4, 50 mM NaCl, 5 mM glutathione, 0.1 mM ZnCl2, 10% glycerol, pH 7.4) as a control. The preparations were administered intravenously (i.v) 6 times once daily every second day (in case of fusion protein of the invention of Ex. 11^a first administration at a dose 40 mg/kg and subsequent at 30 mg/kg. On the 29 day of the experiment mice were sacrificed by disruption of the spinal cord.

Assay [2] concerns human colon cancer HCT116. Briefly: Colon cancer model, Experiment A: HCT116 xenograft. The conditions noted are these: 20 mg/kg i.v. 6 times every second day, 32 day. On the procedure:
as §1, §2, §3
On day 0 Crl:SHO-Prkdc^scidHr^hr mice were grafted subcutaneously (s.c.) in the right side with 5×10^6 of HCT116 cells suspended in 0.1 ml of HBSS buffer using syringe with a needle 0.5×25 mm (Bogmark). On the 18 day of the experiment mice were randomized to obtain the average size of tumors in the group of −400 mm^3 and assigned to treatment groups. The treatment groups were administered with the preparations of fusion protein of the invention of Ex. 11^a (35 mg/kg), and rhTRAIL114-281 (20 mg/kg) as a comparison against formulation buffer (5 mM NaH2PO4, 95 mM Na2HPO4, 200 mM NaCl, 5 mM glutathione, 0.1 mM ZnCl2, 10% glycerol, 80 mM saccharose, pH 8.0) as a control. The preparations were administered intravenously (i.v) 6 times once daily every second day. On the 32 day of the experiment mice were sacrificed by disruption of the spinal cord.

Another assay relates to human colon cancer SW620. The assay can be described thus: Colon cancer model, Experiment B: SW620 xenograft. Conditions: 30 mg/kg i.v. 6 times every second day, 31 day. On the procedure: as §1, §2, §3
On day 0 Crl:SHO-Prkdc^scidHr^hr mice were grafted subcutaneously (s.c.) in the right side with 5×10^6 of SW620 cells suspended in 0.1 ml of the mixture HBSS:Matrigel 3:1 using syringe with a needle 0.5×25 mm (Bogmark). On the 17 day of the experiment mice were randomized to obtain the average size of tumors in the group of ˜320 mm^3 and assigned to treatment groups. The treatment groups were administered with the preparation of fusion protein of the invention of Ex. 16^a (20 mg/kg) and rhTRAIL114-281 (30 mg/kg) as a comparison against formulation buffer (19 mM NaH2PO4, 81 mM Na2HPO4, 50 mM NaCl, 5 mM glutathione, 0.1 mM ZnCl2, 10% glycerol, pH 7.4) as a control. The preparations were administered intravenously (i.v) 6 times once daily every second day. On the 31 day of the experiment mice were sacrificed by disruption of the spinal cord.

Assay [3] deals with multidrug resistant human uterine sarcoma MES-SA/Dx5. The assay can be described thus: Multidrug resistant uterine sarcoma model: MES-SA/Dx5 xenograft. Conditions: 10 mg/kg i.v. 6 times every second day, 35 day. On the procedure: as §1, §2, §3
On day 0 Crl:SHO-Prkdc^scidHr^hr mice were grafted subcutaneously (s.c.) in the right side with 7×10^6 of MES-SA/Dx5 cells suspended in 0.1 ml of the mixture HBSS:Matrigel 10:1 using syringe with a needle 0.5×25 mm (Bogmark). On the 19 day of the experiment mice were randomized to obtain the average size of tumors in the group of −180 mm^3 and assigned to treatment groups. The treatment groups were administered with the preparation of fusion protein of the invention of Ex. 11^a (30 mg/kg) and rhTRAIL114-281 (10 mg/kg) as a comparison against formulation buffer (19 mM NaH2PO4, 81 mM Na2HPO4, 50 mM NaCl, 5 mM glutathione, 0.1 mM ZnCl2, 10% glycerol, pH 7.4) as a control. Preparations were administered intravenously (i.v.) 6 times once daily every second day. On the 35 day of the experiment mice were sacrificed by disruption of spinal cord.

Assay [4] concerns human liver cancer PLC/PRF/5. Briefly: Liver cancer model, Experiment B: PLC/PRF/5 xenograft. The conditions noted are these: rhTRAIL 50 mg/kg i.v. six times every second day, 43th day. Here is the method:
as §1, §2, §3
On day 0 Crl:SHO-Prkdc^scidHr^hr mice were grafted subcutaneously (s.c.) in the right flank region with 7×10^6 of PLC/PRF/5 cells suspended in 0.1 ml of the 3:1 mixture HBSS buffer:Matrigel using syringe with a 0.5×25 mm needle (Bogmark). When tumors reached the size of 72-536 mm^3 (day 29), mice were randomized to obtain the average size of tumors in the group of ˜205 mm^3 and assigned to treatment groups. The treatment groups were administered with the preparations of fusion protein of the invention of Ex. 16^b (50 mg/kg) and rhTRAIL114-281 (50 mg/kg) as a comparison and reference compound 5-FU (5-Fluorouracil, Sigma-Aldrich) (30 mg/kg). The preparations were administered intravenously (i.v.) six times every second day, except 5-FU, which was applied intraperitoneally (i.p.) in the schedule (q1dx5)×2. The control group received formulation buffer.
When an experimental group reached the average tumor size of ˜1000 mm^3, mice were sacrificed by cervical dislocation.

For the substance “rhTRAIL114-281: recombinant human soluble TRAIL, amino acids 114-281 of hTRAIL, used as comparative reference”, the “TGI (tumor growth inhibition) relative to the control” value in assay [1] is given as 76%; in assay [2], 5.6%; in the assay with human colon cancer SW620 it was −9%; in assay [3] it was 29%; in assay [4], 25.2%.
